Reference: patent publication US8026359B2, “Fungicidal heterocyclic amines” (E.I. du Pont de Nemours and Company, priority 2007, dated 2011)

Key:
Format in all cases: in vivo
[1] = test system: Erysiphe graminis f. sp. tritici; experiment: Test A: wheat powdery mildew, preventive spray on wheat seedlings; settings: 200 ppm, 100 = 100% disease control, 0 = no control relative to controls; for pest or weed control at 200 ppm: Blumeria graminis, 192 h, read-out: Test A disease control rating
Excerpt: (§1) General protocol for preparing test suspensions for Tests A-R: The test compounds were first dissolved in acetone in an amount equal to 3% of the final volume and then suspended at the desired concentration (in ppm) in acetone and purified water (50/50 mix) containing 250 ppm of the surfactant Trem® 014 (polyhydric alcohol esters). The resulting test suspensions were then used in tests A-R. In Tests A-M, compounds were sprayed as a 200 ppm test suspension (equivalent to a rate of 500 g/ha) or as a 40 ppm test suspension to the point of runoff on the test plants. In Tests N-R, compounds were sprayed as a 100 g/ha test suspension (equivalent to a rate of 100 ppm) on the test plants at an application volume of 1000 L/ha. The test suspension was sprayed to the point of run-off on wheat seedlings.

[2] = test system: Puccinia recondita f. sp. tritici; experiment: Test B: wheat leaf rust, preventive spray on wheat seedlings; settings: 200 ppm, 100 = 100% disease control, 0 = no control relative to controls; for pest or weed control at 200 ppm: Puccinia recondita, 192 h, read-out: Test B disease control rating
Excerpt: as §1

Septoria nodorum = experiment: Test C: wheat glume blotch, preventive spray on wheat seedlings; settings: 200 ppm, 100 = 100% disease control, 0 = no control relative to controls; for pest or weed control at 200 ppm: Parastagonospora nodorum, 216 h, read-out: Test C disease control rating
Excerpt: as §1

Septoria tritici = experiment: Test D: wheat leaf blotch, preventive spray on wheat seedlings; settings: 200 ppm, 100 = 100% disease control, 0 = no control relative to controls; for pest or weed control at 200 ppm: Zymoseptoria tritici, 504 h, read-out: Test D disease control rating
Excerpt: as §1

Fusarium graminearum = experiment: whole plant or invertebrate; settings: for Test E disease control rating: 200 ppm, 100 = 100% disease control, 0 = no control relative to controls; for pest or weed control at 200 ppm: Fusarium graminearum, in Triticum aestivum, 192 h, read-out: Test E disease control rating
Botrytis cinerea = experiment: Test F: tomato Botrytis, preventive spray on tomato seedlings; settings: 200 ppm, 100 = 100% disease control, 0 = no control relative to controls; for pest or weed control at 200 ppm: Botrytis cinerea, 120 h, read-out: Test F disease control rating
Excerpt: as §1, with “tomato” for “wheat”

[3] = test system: Colletotrichum orbiculare; experiment: Test I: cucumber Colletotrichum anthracnose, preventive spray on cucumber seedlings; settings: 100 = 100% disease control, 0 = no control relative to controls; for Test I disease control rating: 200 ppm; for pest or weed control at 200 ppm: Colletotrichum orbiculare, 144 h, read-out: Test I disease control rating
Excerpt: as §1, with “cucumber” for “wheat”

Row | Structure (SMILES) | Test A disease control rating [1] [%] | Test B disease control rating [2] [%] | Test C disease control rating (Septoria nodorum) [%] | Test D disease control rating (Septoria tritici) [%] | Test E disease control rating (Fusarium graminearum) [%] | Test F disease control rating (Botrytis cinerea) [%] | Test I disease control rating [3] [%] | pest or weed control at 200 ppm [1] [%] | pest or weed control at 200 ppm [2] [%] | pest or weed control at 200 ppm (Septoria nodorum) [%] | pest or weed control at 200 ppm (Septoria tritici) [%] | pest or weed control at 200 ppm (Fusarium graminearum) [%] | pest or weed control at 200 ppm (Botrytis cinerea) [%] | pest or weed control at 200 ppm [3] [%]
1 | Clc1cccc(Nc2cc(-c3ccnc(N[C@H]4CCOC4)n3)ccn2)c1 [Compound 72] | 0 | 80 | 95 | 11 | 0 | 0 | 0 |  |  |  |  |  |  | 
2 | Fc1cccc(Nc2cc(-c3ccnc(NC4CCOC4)n3)ccn2)c1 (stereo not shown) [Compound 74] | 0 | 94 | 99 | 72 | 0 | 48 | 17 |  |  |  |  |  |  | 
3 | Fc1cccc(Nc2cc(-c3ccnc(NC4CCCOC4)n3)ccn2)c1 (stereo not shown) [Compound 75] | 0 | 83 | 89 | 28 | 0 | 90 | 9 |  |  |  |  |  |  | 
4 | COCC(C)Nc1nccc(-c2ccnc(Nc3c(C)cccc3Cl)c2)n1 (stereo not shown) [Compound 76, 4-[2-[(2-chloro-6-methylphenyl)amino]-4-pyridinyl]-N-(2-methoxy-1-methylethyl)-2-pyrimidinamine] |  |  |  |  |  |  |  | 36 | 99 | 99 | 87 | 93 | 97 | 72
5 | COCC(C)Nc1nccc(-c2ccnc(Nc3c(C)cccc3C)c2)n1 (stereo not shown) [Compound 77] | 95 | 99 | 99 | 61 | 92 | 88 | 96 |  |  |  |  |  |  | 
6 | COCC(C)Nc1nccc(-c2ccnc(Nc3c(Cl)cccc3Cl)c2)n1 (stereo not shown) [Compound 78] | 39 | 99 | 99 | 60 | 0 | 93 | 98 |  |  |  |  |  |  | 
7 | COCC(C)Nc1nccc(-c2ccnc(Nc3c(F)cccc3Cl)c2)n1 (stereo not shown) [Compound 79] | 0 | 99 | 99 | 5 | 0 | 94 | 96 |  |  |  |  |  |  | 
8 | Cc1cccc(Cl)c1Nc1cc(-c2ccnc(NC3CCOCC3)n2)ccn1 [Compound 80, 4-[2-[(2-chloro-6-methylphenyl)amino]-4-pyridinyl]-N-(tetrahydro-2H-pyran-4-yl)-2-pyrimidinamine] |  |  |  |  |  |  |  | 86 | 100 | 99 | 93 | 98 | 99 | 98
9 | Fc1cccc(Nc2cc(-c3ccnc(NCC4CCOC4)n3)ccn2)c1 (stereo not shown) [Compound 82, 4-[2-[(3-fluorophenyl)amino]-4-pyridinyl]-N-[(tetrahydro-3-furanyl)methyl]-2-pyrimidinamine] |  |  |  |  |  |  |  | 0 | 98 | 91 | 68 | 0 | 0 | 29
10 | Fc1cccc(Nc2cc(-c3ccnc(NCC4CCCO4)n3)ccn2)c1 (stereo not shown) [Compound 83, 4-[2-[(3-fluorophenyl)amino]-4-pyridinyl]-N-[(tetrahydro-2-furanyl)methyl]-2-pyrimidinamine] |  |  |  |  |  |  |  | 0 | 95 | 99 | 92 | 0 | 53 | 0
